{
  "source": "paper PMC9880324",
  "about": "“Sugar perception in honeybees” (Frontiers in Physiology, 2023)",
  "key": {"[1]": {"molecular_target": "T1, AmGr2 (Apis mellifera, UniProt A0A7M7R6T6)", "T1 construct": "gene LOC413684; cDNA cloned from taste tissue, subcloned in pNBIu, cRNA expressed alone in Xenopus oocytes; homomer", "T1 sequence (A0A7M7R6T6 1-470)": "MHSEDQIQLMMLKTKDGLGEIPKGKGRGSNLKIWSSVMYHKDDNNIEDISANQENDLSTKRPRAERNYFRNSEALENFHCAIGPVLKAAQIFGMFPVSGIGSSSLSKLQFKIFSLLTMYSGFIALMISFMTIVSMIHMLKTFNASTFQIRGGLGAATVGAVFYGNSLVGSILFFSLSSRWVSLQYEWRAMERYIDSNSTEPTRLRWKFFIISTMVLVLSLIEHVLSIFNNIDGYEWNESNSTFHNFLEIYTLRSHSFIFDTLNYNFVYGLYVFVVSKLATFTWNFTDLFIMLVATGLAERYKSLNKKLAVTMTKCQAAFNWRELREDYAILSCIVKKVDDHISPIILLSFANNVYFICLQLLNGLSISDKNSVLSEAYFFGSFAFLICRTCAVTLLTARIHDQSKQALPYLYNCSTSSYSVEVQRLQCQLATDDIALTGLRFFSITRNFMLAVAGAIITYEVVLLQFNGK", "test": "two-electrode voltage clamp, Xenopus oocytes", "format": "cell-based", "conditions": "160 mM sugar, pH 7.5, -80 mV, agonist"}, "[2]": {"molecular_target": "T2, AmGr3 (Apis mellifera, UniProt A0A7M7IGL4)", "T2 construct": "gene LOC725483; cDNA cloned from taste tissue, subcloned in pNBIu, cRNA expressed alone in Xenopus oocytes", "T2 sequence (A0A7M7IGL4 1-474)": "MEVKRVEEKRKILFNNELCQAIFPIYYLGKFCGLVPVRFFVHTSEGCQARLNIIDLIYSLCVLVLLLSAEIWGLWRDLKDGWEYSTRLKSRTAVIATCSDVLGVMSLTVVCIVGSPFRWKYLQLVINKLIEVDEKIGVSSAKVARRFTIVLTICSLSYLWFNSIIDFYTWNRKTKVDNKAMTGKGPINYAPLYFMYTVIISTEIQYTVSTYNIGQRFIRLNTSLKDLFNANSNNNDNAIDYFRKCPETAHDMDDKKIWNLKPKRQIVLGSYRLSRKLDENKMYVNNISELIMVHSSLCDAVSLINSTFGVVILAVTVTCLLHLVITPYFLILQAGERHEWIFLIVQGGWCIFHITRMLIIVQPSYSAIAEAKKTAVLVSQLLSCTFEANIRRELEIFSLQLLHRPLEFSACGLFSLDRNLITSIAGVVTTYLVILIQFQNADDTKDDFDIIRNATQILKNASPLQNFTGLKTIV", "test": "two-electrode voltage clamp, Xenopus oocytes", "format": "cell-based", "conditions": "160 mM sugar, pH 7.5, -80 and -140 mV; agonist"}},
  "data": [
    {"molecule": "OC[C@H]1O[C@@](CO)(O[C@H]2O[C@H](CO)[C@@H](O)[C@H](O)[C@H]2O)[C@@H](O)[C@@H]1O", "note": "[sucrose]", "values": [
      {"measurement": "two-electrode voltage clamp, Xenopus oocytes", "setting": "[1]; microscopic inward current", "result": "Sustained inward currents could only be generated by application of sucrose"}
    ]},
    {"molecule": "OC[C@H]1OC(O)[C@H](O)[C@@H](O)[C@@H]1O", "note": "(stereo partly drawn) [glucose]", "values": [
      {"measurement": "two-electrode voltage clamp, Xenopus oocytes", "setting": "[1]; transient microscopic inward current", "result": "AmGr2-expression revealed transient inward currents during glucose application"}
    ]},
    {"molecule": "OCC1(O)OC[C@@H](O)[C@@H](O)[C@@H]1O", "note": "(stereo partly drawn) [fructose]", "values": [
      {"measurement": "two-electrode voltage clamp, Xenopus oocytes", "setting": "[2]", "result": "The sole expression of AmGr3 in oocytes revealed only fructose-induced current responses"}
    ]}
  ]
}
